Test [1] concerns the target T1, human 15-PGDH (Homo sapiens, UniProt P15428).
T1 construct: comprising residues 3–256 of the human HPGD gene (GenBank identifier: 1203982); His6 (GHHHHHH, behind the TEV site) (C, cleaved yes); made in house; host or cells: E. coli BL21(DE3)-R3
T1 sequence (P15428 3-256): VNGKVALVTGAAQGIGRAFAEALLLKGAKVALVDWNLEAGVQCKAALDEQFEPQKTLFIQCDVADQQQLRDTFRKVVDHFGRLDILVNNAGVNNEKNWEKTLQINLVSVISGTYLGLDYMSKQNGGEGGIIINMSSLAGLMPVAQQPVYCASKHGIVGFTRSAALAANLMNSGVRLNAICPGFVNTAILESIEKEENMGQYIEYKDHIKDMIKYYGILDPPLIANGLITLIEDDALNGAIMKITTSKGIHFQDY
Nature of the test: Differential scanning fluorimetry (DSF), thermal stabilization. The class given is binding. As to conditions: 1 µM protein, compound 50 or 250 µM, N/A = no unfolding transition observed in DSF; for ∆Tm [°C] NAD+: with 200 µM NAD+; for ∆Tm [°C] NADH: with 200 µM NADH; for ∆Tm [°C] apo: without cofactor. As to the method:
A correlation between the ΔTm and the inhibitory potency has been shown in a number of protein-ligand systems, particularly for kinases [32]–[34].
Studies to assess the thermal stability of human 15-PGDH in presence of compounds were performed as described previously, with variations. Briefly, the protein was diluted to a final assay concentration of 1 µM in 100 mM Tris buffer pH 8.0, containing 0.01% Tween-20 and 1∶1000 SYPRO orange dye (Invitrogen). […] Compounds were added at a ratio of 1∶5 from appropriate stock solutions in 10% (v/v) DMSO to comprise either 50 or 250 µM final concentrations. Heat denaturation curves were recorded using a RT-PCR instrument (Mx3005p, Agilent) applying a temperature gradient of 2°C/min. […] 2.5 (ftp://ftp.sgc.ox.ac.uk/pub/biophysics) and PRISM 5.0 (GraphPad Software, Inc.).
Background: Differential scanning fluorimetry follows unfolding on heating by fluorescence.

The target in test [2] is T1, human 15-PGDH. In words: qHTS and 24-point re-test: fluorescence assay of NAD+ reduction to NADH on PGE2 oxidation (PubChem AID 894). In kind it is biochemical. Particulars: potency in 24-point titrations on re-test; 20 nM 15-PGDH, 1 mM NAD+, 30 µM PGE2, pH 8.0; read-out: qHTS IC50. As to the method: The assay was miniaturized to a 4-µL volume in 1536-well format: enzyme (3 µL) was dispensed first, followed by a pintool transfer of library compounds dissolved in DMSO. After equilibration, a substrate dispense (1 µL) initiated the enzymatic reaction (see Materials and Methods, for detailed protocol description). […] Hits associated with low-efficacy (<40% maximum inhibition), incomplete curves, as well as those displaying only a single-point inhibition at the top concentration tested were eliminated from further consideration. Similarly, the collection of real-time kinetic data allowed the autofluorescence of each compound to be evaluated by comparing the initial fluorescence read at top concentration with the mean value of uninhibited assay controls: compounds whose top-concentration initial well fluorescence exceeded six standard deviations over the mean were flagged as potential autofluorescent artifacts, [28] (see example in supplementary information Figure S1E). The complete screening and followup results are available in PubChem (PubChem Assay ID 894).
The enzymatic reaction was performed in 50 mM Tris-HCl pH 8.0, containing 0.01% Tween 20. […] The high-throughput screen was performed on a fully integrated robotic system (Kalypsys Inc, San Diego, CA) as described elsewhere. Library compounds, arrayed as seven-point inter-plate concentration series, were screened from the lowest (3.5 nM) to the highest (57.5 µM) concentration, with plates containing DMSO only, serving to note any systematic drifts in the signal, interspersed evenly throughout the screen (approximately every 50 plates). Briefly, 3 µL of reagents were dispensed into 1536-well Greiner black solid-bottom assay plates using integrated nanoliter solenoid-technology dispensers. Compounds and controls (23 nL) were transferred via Kalypsys pintool equipped with 1,536-pin array (10-nL slotted pins; V&P Scientific, Palo Alto, CA). After a 15-minute incubation (to allow for interaction between compound and enzyme), a 1-µL substrate addition step initiated the reaction. Kinetic data were collected on a ViewLux High-throughput CCD imager (Perkin-Elmer) equipped with standard UV fluorescence optics (exc. 340 nm, em. 450 nm).
Starting fluorescence intensity and the change in fluorescence over the two-minute initial rate period were recorded for every well. Screening data were normalized against no-enzyme (64 wells, columns 3 and 4) and no-compound (32 wells located in column 1) controls, and concentration-response relationships were derived as described previously. A four-parameter Hill equation [47] was fitted to the concentration-response data using publicly available algorithms (http://www.ncgc.nih.gov/pub/openhts/curvefit/).

The values that follow come from article PMC2970562, “High-Affinity Inhibitors of Human NAD^+-Dependent 15-Hydroxyprostaglandin Dehydrogenase: Mechanisms of Inhibition and Structure-Activity Relationships” (PLoS ONE, 2010).

For the compound `CCN(CC)C(=O)c1sc2nc(-c3cccs3)cc(-c3ccc(Cl)cc3)c2c1N` [Compound 36], on human 15-PGDH [1], the “∆Tm [°C] NAD+” value was 0.9 °C, the “∆Tm [°C] NADH” value is 2.9 °C and the “∆Tm [°C] apo” value is -1.5 °C. Besides, at human 15-PGDH [2], the IC50 (as a rule, the concentration at which inhibition is half-maximal) was 10000 nM.

On to `Cc1cc([N+](=O)[O-])c2c(c1C)[C@@H]1C=CC[C@@H]1C(c1cccc(Cl)c1)N2` (stereo partly drawn) [Compound 37], for which, at human 15-PGDH [1], the “∆Tm [°C] NAD+” value amounted to 1.1 °C, the “∆Tm [°C] NADH” value is 5.0 °C and the “∆Tm [°C] apo” value was -2.0 °C. In addition, the IC50 at human 15-PGDH [2] stood at 2000 nM.

Take `COc1ccc(NS(=O)(=O)Cc2ccccc2Cl)cc1` [Compound 42]: at human 15-PGDH [1], the “∆Tm [°C] NAD+” value came out at 7.5 °C, the “∆Tm [°C] NADH” value worked out at 4.8 °C and the “∆Tm [°C] apo” value is -0.5 °C. Also, at human 15-PGDH [2], the IC50 is 316 nM.

Take `COCCNC(=O)c1cc2oc3ccccc3c2n1C` [Compound 45]: on human 15-PGDH [1], the “∆Tm [°C] NAD+” value amounted to 2.7 °C, the “∆Tm [°C] NADH” value is 2.9 °C and the “∆Tm [°C] apo” value was -1.9 °C. Moreover, the IC50 at human 15-PGDH [2] came out at 1580 nM.

Regarding `Cc1ccc2cc3c(N)c(C(=O)N4CCC(C)CC4)sc3nc2c1` [Compound 48], at human 15-PGDH [1], the “∆Tm [°C] NAD+” value was 0.5 °C, the “∆Tm [°C] NADH” value came out at 3.3 °C and the “∆Tm [°C] apo” value is -0.6 °C. Also, the IC50 at human 15-PGDH [2] was determined as 1000 nM.

Take `CC(C)(C)OC(=O)NC(Cc1csc2ccccc12)C(=O)CCc1cc(C(F)(F)F)cc(C(F)(F)F)c1` (stereo not drawn) [Compound 50]: at human 15-PGDH [1], the “∆Tm [°C] NAD+” value came out at 1.9 °C, the “∆Tm [°C] NADH” value worked out at 1.7 °C and the “∆Tm [°C] apo” value was -1.9 °C. The IC50 at human 15-PGDH [2] was determined as 6310 nM.

On to `Cc1ccc(C2=NC(=CN3CCOCC3)C(=O)O2)cc1` [Compound 54], for which, on human 15-PGDH [1], the “∆Tm [°C] NAD+” value was 6.0 °C, the “∆Tm [°C] NADH” value stood at 3.9 °C and the “∆Tm [°C] apo” value is -1.5 °C. The IC50 at human 15-PGDH [2] came out at 2510 nM.

Consider `Brc1ccc(-c2cc3n(n2)CCc2nc4ccccc4n2-3)cc1` [Compound 55], for which, at human 15-PGDH [1], the “∆Tm [°C] NAD+” value stood at 3.7 °C, the “∆Tm [°C] NADH” value is 4.7 °C and the “∆Tm [°C] apo” value turned out to be 0.1 °C. Besides, the IC50 on human 15-PGDH [2] came to 1120 nM.

Take `CC(O)CN(C)C(C)N(CCN(C)C)CCN(C)C` (stereo not drawn) [Compound 56]: on human 15-PGDH [1], the “∆Tm [°C] NAD+” value is 6.1 °C, the “∆Tm [°C] NADH” value came out at 0.4 °C and the “∆Tm [°C] apo” value was 0.0 °C. Also, at human 15-PGDH [2], the IC50 was determined as 1000 nM.

Take `COc1ccc(C(=O)OCC(=O)Nc2c(C)cccc2C)cc1S(=O)(=O)N(C)C` [Compound 57]: on human 15-PGDH [1], the “∆Tm [°C] NAD+” value amounted to 9.2 °C, the “∆Tm [°C] NADH” value was 1.6 °C and the “∆Tm [°C] apo” value is -0.3 °C. Besides, at human 15-PGDH [2], the IC50 turned out to be 2240 nM.

Regarding `Cc1cc(C(=O)N2CCN(C)CC2)c(C)n1C1CC1` [Compound 59], on human 15-PGDH [1], the “∆Tm [°C] NAD+” value came to 6.9 °C, the “∆Tm [°C] NADH” value was 1.7 °C and the “∆Tm [°C] apo” value was -6.1 °C. In addition, the concentration for half-maximal inhibition (IC50) at human 15-PGDH [2] stood at 2240 nM.

In the case of `Fc1ccccc1CSc1nc2cc(Br)cnc2[nH]1` [Compound 60], at human 15-PGDH [1], the “∆Tm [°C] NAD+” value turned out to be 7.6 °C, the “∆Tm [°C] NADH” value was determined as 1.5 °C and the “∆Tm [°C] apo” value is -0.2 °C. In addition, the IC50 on human 15-PGDH [2] turned out to be 631 nM.

As to `COc1ccc(CNC(=O)CCn2c(-c3cccc(C)c3)n[nH]c2=S)cc1` [Compound 65], the “∆Tm [°C] NADH” value at human 15-PGDH [1] is -0.2 °C. In addition, the IC50 at human 15-PGDH [2] worked out at 631 nM.

Regarding `C=CCn1c(=NC(=O)c2cc(C)n(C)n2)sc2cc(Cl)ccc21` [Compound 66], the “∆Tm [°C] NADH” value at human 15-PGDH [1] is -0.7 °C. Further, on human 15-PGDH [2], the IC50 is 355 nM.

`O=c1c2ccccc2sn1-c1cc(S(=O)(=O)N2CCOCC2)ccc1N1CCCC1` [Compound 71]: at human 15-PGDH [1], the “∆Tm [°C] NAD+” value is 2.4 °C, the “∆Tm [°C] NADH” value is -0.4 °C and the “∆Tm [°C] apo” value is -1.8 °C. In addition, the IC50 at human 15-PGDH [2] turned out to be 2510 nM.

For `CN(CCc1ccccn1)CC(=O)Nc1ccc(OC(F)(F)F)cc1` [Compound 78], at human 15-PGDH [1], the “∆Tm [°C] NAD+” value was determined as 4.0 °C, the “∆Tm [°C] NADH” value is -7.6 °C and the “∆Tm [°C] apo” value is -7.4 °C. For the same compound, the IC50 at human 15-PGDH [2] was determined as 2510 nM.
